In patent US20210084905A1, “METHODS AND COMPOSITIONS FOR AQUACULTURE” (priority 2018, published 2021):

Columns and labels:
[1] = test system: bacterial strains seeded into an agar soft overlay; experiment: secretion assay, soft agar overlay (halo of inhibition); assay type: cell-based; details: secreted antibacterial compound
Description: Many other phenazine molecules including pyocyanin are shown to elicit antibacterial activity often by causing oxidative stress. To test whether the genes hit in the transposon insertion screen are required, two separate genes with insertions (orf6 & orf8) in the region of the operon were precisely deleted in A603 ΔvipA.
The spectrum of inhibition for the putative phenazine molecule was tested by seeding agar with a diverse set of laboratory and environmental strains using A603 ΔvipA and an isogenic double knockout A603 ΔvipA Δorf8 to score inhibition by appearance of a halo around A603 ΔvipA.

[2] = test system: V. cholerae O1 strain, H1; experiment: sensitivity to the A603 phenazine; assay type: cell-based
Description: GO annotations were not assigned to these genes thus they were not included in the hypergeometric and GSEA analyses. One gene (TMChrII_2378) encodes a protein with high structural conservation to heme monooxgenase and the other (TMChrI_2040) a dioxygenase that closely resembles a bleomycin resistance proteins. A second dioxygenase (TMChr1_3001) is also among the top induced genes. This family of dioxygenase proteins includes those that can bind and in some cases hydrolyze planar and aromatic antibacterial molecules including phenazines. Though amino acid sequence similarity is poor, the predicted structure of TMChr1_2040 is very similar to EphR, a protein that loosely binds phenazine in producer strains and confers resistance by binding molecules until export.

SMILES: c1ccc2nc3ccccc3nc2c1 [A603 phenazine]
- growth inhibition (halo) in soft agar overlay [1]: broad spectrum antibacterial activity
- sensitivity of V. cholerae O1 strain H1 [2]: very sensitive
